Source: patent US20240116948A1, “PYRIDO OXAZINE DERIVATIVES AS ALK5 INHIBITORS” (CHIESI FARMACEUTICI S.P.A., priority 2020, published 2024)

The compounds below were run against human ALK5 (Homo sapiens (Human), UniProt P36897) (assay: ADP-GLO Kinases assay, inhibition of ALK5 kinase activity). Conditions: Table 12; compounds classified in term of potency; ATP at Km, 25° C.; read-out: ALK5 IC50.
human ALK5, sequence (P36897 80-503 limits assumed): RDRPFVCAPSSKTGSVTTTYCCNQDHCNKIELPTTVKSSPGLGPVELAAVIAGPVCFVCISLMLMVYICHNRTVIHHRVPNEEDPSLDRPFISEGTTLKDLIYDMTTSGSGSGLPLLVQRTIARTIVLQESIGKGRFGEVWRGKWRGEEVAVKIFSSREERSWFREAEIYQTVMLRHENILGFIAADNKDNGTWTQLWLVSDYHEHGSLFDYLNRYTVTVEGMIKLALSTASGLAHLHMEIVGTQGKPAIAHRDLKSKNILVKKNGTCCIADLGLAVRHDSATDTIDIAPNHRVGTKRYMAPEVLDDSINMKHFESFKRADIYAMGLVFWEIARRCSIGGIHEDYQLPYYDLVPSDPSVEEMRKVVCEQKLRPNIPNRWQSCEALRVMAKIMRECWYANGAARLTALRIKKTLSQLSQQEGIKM
Type: biochemical
Description: The enzymatic activity of compounds of the present invention was monitored measuring the formation of ADP using the ADP-GLO Kinases assay. Following the incubation of the purified enzyme, a substrate and ATP, the produced ADP was converted into ATP, which in turn was converted into light by Ultra-Glo Luciferase. The luminescent signal positively correlated with ADP amount and kinase activity. Briefly, the kinase reaction was performed by incubating 2.6 nM of the purified, commercially available human ALK5 (recombinant TGF 31 N-term GST-tagged, 80-end), a final concentration of TGFβ1 peptide 94.5 μM (Promega, T36-58) and ultra-pure ATP (Promega V915B). The ATP concentration was set at the Km value (concentration of substrate which permits the enzyme to achieve half maximal velocity (Vmax)) of ALK5 (5 μM). All reactions/incubations were performed at 25° C. Compound and ALK5 kinase were mixed and incubated for 15 mins. Reactions were initiated by addition of ATP at a final concentration in the assay of […]. After an incubation of 150 min, the reaction was stopped, and ADP production detected with ADP-Glo kit according to manufacturer's indications. The assay was performed in 384-well format and was validated using a selection of reference compounds that was tested in 11 point concentration-response curve.
Compounds of the examples C1 and C2 were tested in the same in vitro assay described above.
In the case of Fc1ccc(Cl)cc1-c1cc(-c2cccnc2)c2c(n1)NCCO2 [Example 1, 3-[6-(5-chloro-2-fluorophenyl)-2H,3H,4H-pyrido[3,2-b][1,4]oxazin-8-yl]pyridine], the IC50 is reported as 5 to 10 nM.
In the case of Fc1ccc(Cl)cc1-c1cc(-c2cncc3ccccc23)c2c(n1)NCCO2 [Example 2, 4-[6-(5-chloro-2-fluorophenyl)-2H,3H,4H-pyrido[3,2-b][1,4]oxazin-8-yl]isoquinoline], the IC50 is reported as 1 to 5 nM.
For Cc1cccc(-c2cc(-c3cncc4ccccc34)c3c(n2)NCCO3)n1 [Example 3, 4-[6-(6-methylpyridin-2-yl)-2H,3H,4H-pyrido[3,2-b][1,4]oxazin-8-yl]isoquinoline], the IC50 was 1 to 5 nM.
Cc1csc(-c2cc(-c3cncc4ccccc34)c3c(n2)NCCO3)n1 [Example 4, 4-[6-(4-methyl-1,3-thiazol-2-yl)-2H,3H,4H-pyrido[3,2-b][1,4]oxazin-8-yl]isoquinoline] gave an IC50 of 1 to 5 nM.
Nc1cncc(-c2cc(-c3cc(Cl)ccc3F)nc3c2OCCN3)c1 [Example 5, 5-[6-(5-chloro-2-fluorophenyl)-2H,3H,4H-pyrido[3,2-b][1,4]oxazin-8-yl]pyridin-3-amine] gave an IC50 of 1 to 5 nM.
With NC(=O)c1cncc(-c2cc(-c3cc(Cl)ccc3F)nc3c2OCCN3)c1 [Example 6, 5-[6-(5-chloro-2-fluorophenyl)-2H,3H,4H-pyrido[3,2-b][1,4]oxazin-8-yl]pyridine-3-carboxamide] the IC50 was 1 to 5 nM.
For CNC(=O)c1cncc(-c2cc(-c3cc(Cl)ccc3F)nc3c2OCCN3)c1 [Example 7, 5-[6-(5-chloro-2-fluorophenyl)-2H,3H,4H-pyrido[3,2-b][1,4]oxazin-8-yl]-N-methylpyridine-3-carboxamide], the IC50 was 5 to 10 nM.
With O=C(CCN1CCOCC1)Nc1cncc(-c2cc(-c3cc(Cl)ccc3F)nc3c2OCCN3)c1 [Example 9, N-{5-[6-(5-chloro-2-fluorophenyl)-2H,3H,4H-pyrido[3,2-b][1,4]oxazin-8-yl]pyridin-3-yl}-3-(morpholin-4-yl)propanamide] the IC50 was 1 to 5 nM.
With Fc1ccc(Cl)cc1-c1cc(-c2cnc3[nH]ncc3c2)c2c(n1)NCCO2 [Example 10, 6-(5-chloro-2-fluorophenyl)-8-{1H-pyrazolo[3,4-b]pyridin-5-yl}-2H,3H,4H-pyrido[3,2-b][1,4]oxazine] the IC50 was at most 1 nM.
O=C(NCCN1CCOCC1)c1cncc(-c2cc(-c3cc(Cl)ccc3F)nc3c2OCCN3)c1 [Example 11, 5-[6-(5-chloro-2-fluorophenyl)-2H,3H,4H-pyrido[3,2-b][1,4]oxazin-8-yl]-N-[2-(morpholin-4-yl)ethyl]pyridine-3-carboxamide] showed an IC50 of 5 to 10 nM.
Fc1ccc(Cl)cc1-c1cc(-c2cnc3[nH]ccc3c2)c2c(n1)NCCO2 [Example 13, 6-(5-chloro-2-fluorophenyl)-8-{1H-pyrrolo[2,3-b]pyridin-5-yl}-2H,3H,4H-pyrido[3,2-b][1,4]oxazine] gave an IC50 of 5 to 10 nM.
Work on Fc1ccc(Cl)cc1-c1cc(-c2cnc3[nH]cnc3c2)c2c(n1)NCCO2 [Example 14, 6-(5-chloro-2-fluorophenyl)-8-{3H-imidazo[4,5-b]pyridin-6-yl}-2H,3H,4H-pyrido[3,2-b][1,4]oxazine] yielded an IC50 of 5 to 10 nM.
CN(C)CC(=O)Nc1cncc(-c2cc(-c3cc(Cl)ccc3F)nc3c2OCCN3)c1 [Example 15, N-{5-[6-(5-chloro-2-fluorophenyl)-2H,3H,4H-pyrido[3,2-b][1,4]oxazin-8-yl]pyridin-3-yl}-2-(dimethylamino)acetamide] gave an IC50 of 5 to 10 nM.
For O=C(CCN1CCNCC1)Nc1cncc(-c2cc(-c3cc(Cl)ccc3F)nc3c2OCCN3)c1 [Example 16, N-{5-[6-(5-chloro-2-fluorophenyl)-2H,3H,4H-pyrido[3,2-b][1,4]oxazin-8-yl]pyridin-3-yl}-3-(piperazin-1-yl)propanamide], the IC50 was 1 to 5 nM.
Compound CN(C)CCCC(=O)Nc1cncc(-c2cc(-c3cc(Cl)ccc3F)nc3c2OCCN3)c1 [Example 17, N-{5-[6-(5-chloro-2-fluorophenyl)-2H,3H,4H-pyrido[3,2-b][1,4]oxazin-8-yl]pyridin-3-yl}-4-(dimethylamino)butanamide] has an IC50 of at most 1 nM.
O=C(CCN1CCCCC1)Nc1cncc(-c2cc(-c3cc(Cl)ccc3F)nc3c2OCCN3)c1 [Example 18, N-{5-[6-(5-chloro-2-fluorophenyl)-2H,3H,4H-pyrido[3,2-b][1,4]oxazin-8-yl]pyridin-3-yl}-3-(piperidin-1-yl)propanamide] showed an IC50 of at most 1 nM.
In the case of COC(=O)c1cncc(-c2cc(-c3cc(Cl)ccc3F)nc3c2OCCN3)c1 [Example 19, Methyl 5-[6-(5-chloro-2-fluorophenyl)-2H,3H,4H-pyrido[3,2-b][1,4]oxazin-8-yl]pyridine-3-carboxylate], the IC50 is reported as 1 to 5 nM.
O=C(NCCN1CCNCC1)c1cncc(-c2cc(-c3cc(Cl)ccc3F)nc3c2OCCN3)c1 [Example 20, 5-[6-(5-chloro-2-fluorophenyl)-2H,3H,4H-pyrido[3,2-b][1,4]oxazin-8-yl]-N-[2-(piperazin-1-yl)ethyl]pyridine-3-carboxamide] was tested, and the IC50 was 1 to 5 nM.
For CN(C)CCCNC(=O)c1cncc(-c2cc(-c3cc(Cl)ccc3F)nc3c2OCCN3)c1 [Example 21, 5-[6-(5-chloro-2-fluorophenyl)-2H,3H,4H-pyrido[3,2-b][1,4]oxazin-8-yl]-N-[3-(dimethylamino)propyl]pyridine-3-carboxamide], the IC50 was at most 1 nM.
Work on CNCCC(=O)Nc1cncc(-c2cc(-c3cc(Cl)ccc3F)nc3c2OCCN3)c1 [Example 22, N-{5-[6-(5-chloro-2-fluorophenyl)-2H,3H,4H-pyrido[3,2-b][1,4]oxazin-8-yl]pyridin-3-yl}-3-(methylamino)propanamide] yielded an IC50 of at most 1 nM.
CNCCNC(=O)c1cncc(-c2cc(-c3cc(Cl)ccc3F)nc3c2OCCN3)c1 [Example 23, 5-[6-(5-chloro-2-fluorophenyl)-2H,3H,4H-pyrido[3,2-b][1,4]oxazin-8-yl]-N-[2-(methylamino)ethyl]pyridine-3-carboxamide] gave an IC50 of 1 to 5 nM.
CN(C)CCOC(=O)c1cncc(-c2cc(-c3cc(Cl)ccc3F)nc3c2OCCN3)c1 [Example 24, 2-(dimethylamino)ethyl 5-[6-(5-chloro-2-fluorophenyl)-2H,3H,4H-pyrido[3,2-b][1,4]oxazin-8-yl]pyridine-3-carboxylate] was tested, and the IC50 was 1 to 5 nM.
COc1cncc(-c2cc(-c3cc(Cl)ccc3F)nc3c2OCCN3)c1 [Example 25, 3-[6-(5-chloro-2-fluorophenyl)-2H,3H,4H-pyrido[3,2-b][1,4]oxazin-8-yl]-5-methoxypyridine] gave an IC50 of at most 1 nM.
O=C(NCCN1CCCC1)c1cncc(-c2cc(-c3cc(Cl)ccc3F)nc3c2OCCN3)c1 [Example 26, 5-[6-(5-chloro-2-fluorophenyl)-2H,3H,4H-pyrido[3,2-b][1,4]oxazin-8-yl]-N-[2-(pyrrolidin-1-yl)ethyl]pyridine-3-carboxamide] gave an IC50 of 5 to 10 nM.
For O=C(NCCCN1CCNCC1)c1cncc(-c2cc(-c3cc(Cl)ccc3F)nc3c2OCCN3)c1 [Example 28, 5-[6-(5-chloro-2-fluorophenyl)-2H,3H,4H-pyrido[3,2-b][1,4]oxazin-8-yl]-N-[3-(piperazin-1-yl)propyl]pyridine-3-carboxamide], the IC50 was 1 to 5 nM.
With Oc1cncc(-c2cc(-c3cc(Cl)ccc3F)nc3c2OCCN3)c1 [Example 29, 5-[6-(5-chloro-2-fluorophenyl)-2H,3H,4H-pyrido[3,2-b][1,4]oxazin-8-yl]pyridin-3-ol] the IC50 was 1 to 5 nM.
CN(C)CCCNc1cncc(-c2cc(-c3cc(Cl)ccc3F)nc3c2OCCN3)c1 [Example 30, 5-[6-(5-chloro-2-fluorophenyl)-2H,3H,4H-pyrido[3,2-b][1,4]oxazin-8-yl]-N-[3-(dimethylamino)propyl]pyridin-3-amine] showed an IC50 of 1 to 5 nM.
CNCCCNC(=O)c1cncc(-c2cc(-c3cc(Cl)ccc3F)nc3c2OCCN3)c1 [Example 32, 5-[6-(5-chloro-2-fluorophenyl)-2H,3H,4H-pyrido[3,2-b][1,4]oxazin-8-yl]-N-[3-(methylamino)propyl]pyridine-3-carboxamide] gave an IC50 of 1 to 5 nM.
For O=C(CCCN1CCNCC1)Nc1cncc(-c2cc(-c3cc(Cl)ccc3F)nc3c2OCCN3)c1 [Example 33, N-{5-[6-(5-chloro-2-fluorophenyl)-2H,3H,4H-pyrido[3,2-b][1,4]oxazin-8-yl]pyridin-3-yl}-4-(piperazin-1-yl)butanamide], the IC50 was 1 to 5 nM.
For Fc1ccc(Cl)cc1-c1cc(-c2cncc(OCC3CCCO3)c2)c2c(n1)NCCO2 (stereo not drawn) [Example 34, 3-[6-(5-chloro-2-fluorophenyl)-2H,3H,4H-pyrido[3,2-b][1,4]oxazin-8-yl]-5-[(oxolan-2-yl)methoxy]pyridine], the IC50 was 5 to 10 nM.
Work on Cc1cccc(-c2cc(-c3cnc4[nH]ncc4c3)c3c(n2)NCCO3)n1 [Example 35, 2-methyl-6-(8-{1H-pyrazolo[3,4-b]pyridin-5-yl}-2H,3H,4H-pyrido[3,2-b][1,4]oxazin-6-yl)pyridine] yielded an IC50 of 5 to 10 nM.
In the case of Fc1ccc(Cl)cc1-c1cc(-c2cncc(OC3CCOC3)c2)c2c(n1)NCCO2 (stereo not drawn) [Example 36, 3-[6-(5-chloro-2-fluorophenyl)-2H,3H,4H-pyrido[3,2-b][1,4]oxazin-8-yl]-5-(oxolan-3-yloxy)pyridine], the IC50 is reported as 1 to 5 nM.
CN1CCN(CCNC(=O)c2cncc(-c3cc(-c4cc(Cl)ccc4F)nc4c3OCCN4)c2)CC1 [Example 37, 5-[6-(5-chloro-2-fluorophenyl)-2H,3H,4H-pyrido[3,2-b][1,4]oxazin-8-yl]-N-[2-(4-methylpiperazin-1-yl)ethyl]pyridine-3-carboxamide] showed an IC50 of 1 to 5 nM.
